Reference: US9051310B2, “Nicotinamide derivative or salt thereof” (FUJIFILM Corporation, priority 2011, dated 2015)
Each block holds one molecule with its values, some of them ahead of it.

Biological target: T1, glutathione S-transferase (GST)-linked full-length human Syk protein (Homo sapiens, UniProt P43405)
T1 construct: glutathione S-transferase (GST)-linked full-length human Syk protein; purchased Carna Biosciences; host or cells: Baculovirus expression system
Experiment: Syk enzyme assay
Format: biochemical
Settings: 0.83 nM Syk, time-resolved fluorescence; read-out: IC50 of Syk-inhibitory activity
Outline: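 Phosphotyrosine on a biotin-peptide substrate (0.5 μM) was read by time-resolved fluorescence at 615 and 665 nm with Eu-anti-pTyr antibody and APC-streptavidin after 1 h EDTA stop.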

SMILES: CC(C)C[C@H](CN)Nc1nc(Nc2cncc3c2cnn3CC(F)F)c(C(N)=O)cc1F [Example 2-395, (R)-6-((1-amino-4-methylpentan-2-yl)amino)-2-((1-(2,2-difluoroethyl)-1H-pyrazolo[3,4-c]pyridin-4-yl)amino)-5-fluoronicotinamide]
- IC50: < 10 nM

SMILES: C[C@H](N)[C@H](Nc1nc(Nc2cncc3c2cnn3CC(F)F)c(C(N)=O)cc1F)C1CC1 [Example 2-398, 6-(((1R,2S)-2-amino-1-cyclopropylpropyl)amino)-2-((1-(2,2-difluoroethyl)-1H-pyrazolo[3,4-c]pyridin-4-yl)amino)-5-fluoronicotinamide]
- IC50: < 10 nM

SMILES: CC[C@H](N)[C@@H](C)Nc1nc(Nc2cncc3c2cnn3CC(F)F)c(C(N)=O)cc1F [Example 2-402, 6-(((2R,3S)-3-aminopentan-2-yl)amino)-2-((1-(2,2-difluoroethyl)-1H-pyrazolo[3,4-c]pyridin-4-yl)amino)-5-fluoronicotinamide]
- IC50: < 10 nM

SMILES: Cc1ncc(Nc2nc(N[C@H](c3ccccn3)[C@H](C)N)c(F)cc2C(N)=O)cc1-n1nccn1 [Example 2-403, 6-(((1S,2S)-2-amino-1-(pyridin-2-yl)propyl)amino)-5-fluoro-2-((6-methyl-5-(2H-1,2,3-triazol-2-yl)pyridin-3-yl)amino)nicotinamide]
- IC50: 10 to 50 nM

SMILES: COc1ncc(Nc2nc(N[C@@H]3CCCC[C@@H]3N)c(F)cc2C(N)=O)c2cnn(C)c12 [Example 2-407, 6-(((1R,2S)-2-aminocyclohexyl)amino)-5-fluoro-2-((7-methoxy-1-methyl-1H-pyrazolo[3,4-c]pyridin-4-yl)amino)nicotinamide]
- IC50: 10 to 50 nM

SMILES: Cc1ncc(Nc2nc(N[C@H](c3cccc(F)c3)[C@H](C)N)c(F)cc2C(N)=O)cc1-n1nccn1 [Example 2-412, 6-(((1R,2S)-2-amino-1-(3-fluorophenyl)propyl)amino)-5-fluoro-2-((6-methyl-5-(2H-1,2,3-triazol-2-yl)pyridin-3-yl)amino)nicotinamide]
- IC50: 10 to 50 nM

SMILES: COc1cc(Nc2nc(N[C@@H](CN)Cc3ccccc3)c(F)cc2C(N)=O)cc(OC)n1 [Example 2-418, (R)-6-((1-amino-3-phenylpropan-2-yl)amino)-2-((2,6-dimethoxypyridin-4-yl)amino)-5-fluoronicotinamide]
- IC50: 10 to 50 nM

SMILES: Cc1ccc(Nc2nc(N[C@@H]3CCCC[C@@H]3N)c(F)cc2C(N)=O)cc1 [Example 2-435, 6-(((1R,2S)-2-aminocyclohexyl)amino)-5-fluoro-2-(p-tolylamino)nicotinamide]
- IC50: < 10 nM

SMILES: NC(=O)c1cc(F)c(N[C@@H]2CCCC[C@@H]2N)nc1Nc1cccc(OC(F)(F)F)c1 [Example 2-444, 6-(((1R,2S)-2-aminocyclohexyl)amino)-5-fluoro-2-((3-(trifluoromethoxy)phenyl)amino)nicotinamide]
- IC50: < 10 nM

SMILES: CC(C)Oc1cccc(Nc2nc(N[C@@H]3CCCC[C@@H]3N)c(F)cc2C(N)=O)c1 [Example 2-446, 6-(((1R,2S)-2-aminocyclohexyl)amino)-5-fluoro-2-((3-isopropoxyphenyl)amino) nicotinamide]
- IC50: < 10 nM

SMILES: NC(=O)c1cc(F)c(N[C@@H]2CCCC[C@@H]2N)nc1Nc1ccc(F)c(F)c1 [Example 2-447, 6-(((1R,2S)-2-aminocyclohexyl)amino)-2-((3,4-difluorophenyl)amino)-5-fluoronicotinamide]
- IC50: < 10 nM

SMILES: CC(C)c1ccc(Nc2nc(N[C@@H]3CCCC[C@@H]3N)c(F)cc2C(N)=O)cc1 [Example 2-448, 6-(((1R,2S)-2-aminocyclohexyl)amino)-5-fluoro-2-((4-isopropylphenyl)amino) nicotinamide]
- IC50: 10 to 50 nM

SMILES: CC(C)Oc1ccc(Nc2nc(N[C@@H]3CCCC[C@@H]3N)c(F)cc2C(N)=O)cc1 [Example 2-449, 6-(((1R,2S)-2-aminocyclohexyl)amino)-5-fluoro-2-((4-isopropoxyphenyl)amino) nicotinamide]
- IC50: < 10 nM

Continued, values first:

- IC50: 10 to 50 nM
SMILES: CC[C@@H](Nc1nc(Nc2cncc3c2cnn3CCOC)c(C(N)=O)cc1F)[C@H](C)N [Example 2-387, 6-(((2S,3R)-2-aminopentan-3-yl)amino)-5-fluoro-2-((1-(2-methoxyethyl)-1H-pyrazolo[3,4-c]pyridin-4-yl)amino)nicotinamide]

- IC50: < 10 nM
SMILES: COCCn1ncc2c(Nc3nc(N[C@H](C4CC4)[C@H](C)N)c(F)cc3C(N)=O)cncc21 [Example 2-388, 6-(((1R,2S)-2-amino-1-cyclopropylpropyl)amino)-5-fluoro-2-((1-(2-methoxyethyl)-1H-pyrazolo[3,4-c]pyridin-4-yl)amino)nicotinamide]

- IC50: 10 to 50 nM
SMILES: CCCC[C@@H](Nc1nc(Nc2cncc3c2cnn3CCOC)c(C(N)=O)cc1F)[C@H](C)N [Example 2-389, 6-(((2S,3R)-2-aminoheptan-3-yl)amino)-5-fluoro-2-((1-(2-methoxyethyl)-1H-pyrazolo[3,4-c]pyridin-4-yl)amino)nicotinamide]

- IC50: < 10 nM
SMILES: COCCn1ncc2c(Nc3nc(N[C@H](CC(C)C)[C@H](C)N)c(F)cc3C(N)=O)cncc21 [Example 2-390, 6-(((2S,3R)-2-amino-5-methylhexan-3-yl)amino)-5-fluoro-2-((1-(2-methoxyethyl)-1H-pyrazolo[3,4-c]pyridin-4-yl)amino)nicotinamide]

- IC50: < 10 nM
SMILES: COCCn1ncc2c(Nc3nc(N[C@H](C4CCC4)[C@H](C)N)c(F)cc3C(N)=O)cncc21 [Example 2-391, 6-(((1R,2S)-2-amino-1-cyclobutylpropyl)amino)-5-fluoro-2-((1-(2-methoxyethyl)-1H-pyrazolo[3,4-c]pyridin-4-yl)amino)nicotinamide]

- IC50: < 10 nM
SMILES: CC[C@@H](Nc1nc(Nc2cncc3c2cnn3CC(F)F)c(C(N)=O)cc1F)[C@H](C)N [Example 2-396, 6-(((2S,3R)-2-aminopentan-3-yl)amino)-2-((1-(2,2-difluoroethyl)-1H-pyrazolo[3,4-c]pyridin-4-yl)amino)-5-fluoronicotinamide]

- IC50: < 10 nM
SMILES: CC(C)C[C@@H](Nc1nc(Nc2cncc3c2cnn3CC(F)F)c(C(N)=O)cc1F)[C@H](C)N [Example 2-400, 6-(((2S,3R)-2-amino-5-methylhexan-3-yl)amino)-2-((1-(2,2-difluoroethyl)-1H-pyrazolo[3,4-c]pyridin-4-yl)amino)-5-fluoronicotinamide]

- IC50: < 10 nM
SMILES: C[C@H](N)[C@H](Nc1nc(Nc2cncc3c2cnn3CC(F)F)c(C(N)=O)cc1F)C1CCC1 [Example 2-401, 6-(((1R,2S)-2-amino-1-cyclobutylpropyl)amino)-2-((1-(2,2-difluoroethyl)-1H-pyrazolo[3,4-c]pyridin-4-yl)amino)-5-fluoronicotinamide]

- IC50: 50 to 100 nM
SMILES: COc1ncc(Nc2nc(N[C@H](C3CC3)[C@H](C)N)c(F)cc2C(N)=O)c2cnn(C)c12 [Example 2-408, 6-(((1R,2S)-2-amino-1-cyclopropylpropyl)amino)-5-fluoro-2-((7-methoxy-1-methyl-1H-pyrazolo[3,4-c]pyridin-4-yl)amino)nicotinamide]

- IC50: < 10 nM
SMILES: COc1cc(Nc2nc(N[C@H](c3ccccc3F)[C@H](C)N)c(F)cc2C(N)=O)cc(OC)n1 [Example 2-411, 6-(((1R,2S)-2-amino-1-(2-fluorophenyl)propyl)amino)-2-((2,6-dimethoxypyridin-4-yl)amino)-5-fluoronicotinamide]

- IC50: 10 to 50 nM
SMILES: CN(C)c1nn(C)c2ccc(Nc3nc(N[C@@H](CN)Cc4ccccc4)c(F)cc3C(N)=O)cc12 [Example 2-421, (R)-6-((1-amino-3-phenylpropan-2-yl)amino)-2-((3-(dimethylamino)-1-methyl-1H-indazol-5-yl)amino)-5-fluoronicotinamide]

- IC50: 10 to 50 nM
SMILES: Cc1ncc(Nc2nc(N[C@H](Cc3ccccc3)[C@H](C)N)c(F)cc2C(N)=O)cc1-n1nccn1 [Example 2-422, 6-(((2R,3S)-3-amino-1-phenylbutan-2-yl)amino)-5-fluoro-2-((6-methyl-5-(2H-1,2,3-triazol-2-yl)pyridin-3-yl)amino)nicotinamide]

- IC50: < 10 nM
SMILES: CCn1ncc2cc(Nc3nc(N[C@H](Cc4ccccc4)[C@H](C)N)c(F)cc3C(N)=O)ccc21 [Example 2-423, 6-(((2R,3S)-3-amino-1-phenylbutan-2-yl)amino)-2-((1-ethyl-1H-indazol-5-yl)amino)-5-fluoronicotinamide]

- IC50: < 10 nM
SMILES: C[C@H](N)[C@@H](Cc1ccccc1)Nc1nc(Nc2ccc3c(c2)c(N(C)C)nn3C)c(C(N)=O)cc1F [Example 2-424, 6-(((2R,3S)-3-amino-1-phenylbutan-2-yl)amino)-2-((3-(dimethylamino)-1-methyl-1H-indazol-5-yl)amino)-5-fluoronicotinamide]

- IC50: 10 to 50 nM
SMILES: Cc1ncc(Nc2nc(N[C@H](Cc3ccccc3)[C@H](C)N)c(F)cc2C(N)=O)cc1F [Example 2-426, 6-(((2R,3S)-3-amino-1-phenylbutan-2-yl)amino)-5-fluoro-2-((5-fluoro-6-methylpyridin-3-yl)amino)nicotinamide]

- IC50: < 10 nM
SMILES: CC[C@@H](Nc1nc(Nc2ccc3c(c2)c(N2CCCC2)nn3C)c(C(N)=O)cc1F)[C@H](C)N [Example 2-429, 6-(((2S,3R)-2-aminopentan-3-yl)amino)-5-fluoro-2-((1-methyl-3-(pyrrolidin-1-yl)-1H-indazol-5-yl)amino)nicotinamide]

- IC50: 10 to 50 nM
SMILES: C[C@H](N)[C@H](Nc1nc(Nc2ccc3c(c2)c(N2CCCC2)nn3C)c(C(N)=O)cc1F)C1CC1 [Example 2-430, 6-(((1R,2S)-2-amino-1-cyclopropylpropyl)amino)-5-fluoro-2-((1-methyl-3-(pyrrolidin-1-yl)-1H-indazol-5-yl)amino)nicotinamide]

- IC50: 10 to 50 nM
SMILES: Cn1nc(N2CCCC2=O)c2cc(Nc3nc(N[C@@H]4CCCC[C@@H]4N)c(F)cc3C(N)=O)ccc21 [Example 2-431, 6-(((1R,2S)-2-aminocyclohexyl)amino)-5-fluoro-2-((1-methyl-3-(2-oxopyrrolidin-1-yl)-1H-indazol-5-yl)amino)nicotinamide]

- IC50: < 10 nM
SMILES: Cc1ccc(Nc2nc(N[C@@H]3CCCC[C@@H]3N)c(F)cc2C(N)=O)cc1Cl [Example 2-445, 6-(((1R,2S)-2-aminocyclohexyl)amino)-2-((3-chloro-4-methylphenyl)amino)-5-fluoronicotinamide]
